Like-named read-outs stand apart in the source and are kept apart here. One block for each compound: values may come before it.
Assays:
[1] = format: physicochemical
Protocol: (§1) For the examples below, turbidity is reported in NTUs and was measured at 20±2° C. using a Hach 2100AN Turbidimeter. The instrument was calibrated using a STABLCAL Calibration Kit including samples having turbidities ranging from 0.1 NTU to 7500 NTU. Test samples were measured in a Turbidimeter glass vial and NTU values were read after a 30 second stabilization period.
Varying concentrations of rebaudioside A, rebaudioside C, rebaudioside B, and rebaudioside M were then added individually to the stevioside/rebaudioside D solutions at 70° C. The solutions were allowed to cool to room temperature. Each sample's appearance was noted and turbidity measurements were taken to track solubility.

[2] = format: physicochemical; remark: listed apart in the source
Protocol: as §1
Suspensions of 1 weight percent rebaudioside D in water at ambient temperature were prepared in five individual beakers. Rebaudioside A, stevioside, rebaudioside C, and rebaudioside M were added to each of the first four beakers, respectively, such that that the resulting weight ratio of rebaudioside D to the added steviol glycoside was 1:5. As a control, no additional steviol glycoside was added to the fifth beaker.
After stirring, turbidity measurements were taken from each of the five samples and graphed. According to the turbidity measurements, rebaudiosides A and M had no effect on rebaudioside D solubility.

[3] = Example 2: rebaudioside D solubility at elevated temperatures (turbidity); format: physicochemical
Protocol: as §1
The samples prepared in Example 1 were heated to 70° C. and turbidity was measured again. At 70° C., the 0.5 weight percent rebaudioside D sample was soluble. But the 1 and 1.5 weight percent rebaudioside D samples continued to show maximum turbidity (about 12,000 NTU).

[4] = Example 8: effect of temperature on solubility (appearance, turbidity); format: physicochemical
Protocol: as §1
Aqueous samples containing the amounts of rebaudioside D and stevioside listed in Table 3 were prepared by combining the noted amounts of rebaudioside D and stevioside in water. The samples were then warmed to the temperatures noted in the table.
The appearance of all the samples prepared as above was noted and turbidity measurements were taken to track solubility.

[5] = format: physicochemical; remark: listed apart in the source
Protocol: Rebaudioside D has a better sugar character and taste profile than Rebaudioside A, but only about 200 ppm Rebaudioside D can be solubilized in water at 23° C. after about 30 minutes stirring. While up to about 450 ppm rebaudioside can be solubilized after extended stirring, the amount of time required to prepare these higher concentration rebaudioside D solutions is impractical on a commercial scale. Similarly, while an 8000 ppm aqueous rebaudioside D solution can be prepared by heating rebaudioside D in water to nearly 100° C. for two hours, cooling the solution results in recrystallization, making the solution impractical to work with on a commercial manufacturing scale.
For example, in certain embodiments, rebaudioside D solubility can be increased 50 fold, for example, from about 200 ppm (0.02 weight percent) up to about 10,000 ppm (1 weight percent), when a 1 weight percent rebaudioside D suspension is combined with sufficient stevioside to produce a 50,000 ppm (5 weight percent) steviol glycoside solution. In other embodiments, even greater increases in rebaudioside D solubility can be observed.

[6] = Example 1: room temperature rebaudioside D solubility (turbidity); format: physicochemical; conditions: 0.02 to 1.5 weight percent, ambient temperature, FIG. 1
Protocol: as §1
Rebaudioside D was added to a number of beakers in increasing concentrations (0.02 weight percent, 0.04 weight percent, 0.1 weight percent, 0.5 weight percent, 1 weight percent, and 1.5 weight percent) at ambient temperature. Turbidity measurements were taken to track solubility in the various samples and the results were plotted (FIG. 1).

[7] = Example 4: temperature and low shear mixing (turbidity, HPLC of supernatant); format: physicochemical
Protocol: This study was conducted with a 5:1 mixture (weight/weight) of rebaudioside A and rebaudioside D and a 5:1 mixture (weight/weight) of a rebaudioside A composition and rebaudioside D, wherein the rebaudioside A composition included 30 weight percent stevioside.
The described blends were individually combined with water to produce compositions having rebaudioside D concentrations of 1.4 weight percent based on the total mass of the mixture, including water. The mixtures were then mixed under low shear for 10 minutes at ambient temperature (21° C.). A 100 g sample was removed and centrifuged, and the resulting supernatant was analyzed for turbidity and rebaudioside A and D concentration (HPLC).
The mixtures were then warmed to 45° C. and mixed for 10 minutes. Another 100 g sample was removed and analyzed as described above.
The mixtures were finally warmed to 65° C. and mixed for 10 minutes. Another 100 g sample was removed an analyzed as described above.
This experiment was repeated with 10:1 mixtures of the compositions described above, wherein the final rebaudioside D concentration in each of the compositions was 1.43 weight percent, based on the total mass of the composition, including water.

[8] = Example 9: HPLC analysis of aqueous filtrate after centrifugation and filtration; format: physicochemical; conditions: rebaudioside B added at 0.4% to stevioside/rebaudioside D solution, centrifuged, filtered
Protocol: To confirm that the cloudiness observed in samples comprising rebaudioside B was due to the rebaudioside B itself, a solution of stevioside and rebaudioside D was prepared and rebaudioside B was added at a concentration of 0.4% to form a cloudy suspension. The sample was centrifuged and filtered and the aqueous filtrate was analyzed by HPLC. […] Thus, the cloudiness observed with the addition of rebaudioside B was due to the insolubility of rebaudioside B itself, and not due to the degradation of the rebaudioside D/stevioside complex.

- turbidity ([2]; 1 weight percent rebaudioside D in water, ambient temperature, rebaudioside D to added steviol glycoside 1:5 by weight, FIG. 3): about 1000 NTU
Compound: rebaudioside C
- effect of adding the steviol glycoside on rebaudioside D's solubility [1]: does not affect rebaudioside D's solubility

- effect of added steviol glycoside on rebaudioside D solubility [2]: clear mixture
Compound: C=C1C[C@@]23CC[C@H]4[C@@](C)(CCC[C@@]4(C)C(=O)O[C@@H]4O[C@H](CO)[C@@H](O)[C@H](O)[C@H]4O)[C@@H]2CC[C@]1(O[C@@H]1O[C@H](CO)[C@@H](O)[C@H](O)[C@H]1O[C@@H]1O[C@H](CO)[C@@H](O)[C@H](O)[C@H]1O)C3 [stevioside]

- effect of added steviol glycoside on rebaudioside D solubility [2]: no effect
Compound: C=C1C[C@@]23CC[C@H]4[C@@](C)(CCC[C@@]4(C)C(=O)O[C@@H]4O[C@H](CO)[C@@H](O)[C@H](O[C@@H]5O[C@H](CO)[C@@H](O)[C@H](O)[C@H]5O)[C@H]4O[C@@H]4O[C@H](CO)[C@@H](O)[C@H](O)[C@H]4O)[C@@H]2CC[C@]1(O[C@@H]1O[C@H](CO)[C@@H](O)[C@H](O[C@@H]2O[C@H](CO)[C@@H](O)[C@H](O)[C@H]2O)[C@H]1O[C@@H]1O[C@H](CO)[C@@H](O)[C@H](O)[C@H]1O)C3 [rebaudioside M]
- effect of adding the steviol glycoside on rebaudioside D's solubility [1]: does not affect rebaudioside D's solubility

- solubility in water ([3]; 0.5 weight percent sample at 70° C.): soluble
- turbidity ([3]; 1 and 1.5 weight percent samples at 70° C.): about 12,000 NTU
- solubility of rebaudioside D ([4]; concentration of 0.1%, 20° C., even up to a 4:1 ratio of stevioside to rebaudioside D): insoluble
- aqueous rebaudioside D solution that can be prepared by heating [5]: 8000 ppm
- solubility in water at room temperature [6]: insoluble
Compound: C=C1C[C@@]23CC[C@H]4[C@@](C)(CCC[C@@]4(C)C(=O)O[C@@H]4O[C@H](CO)[C@@H](O)[C@H](O)[C@H]4O[C@@H]4O[C@H](CO)[C@@H](O)[C@H](O)[C@H]4O)[C@@H]2CC[C@]1(O[C@@H]1O[C@H](CO)[C@@H](O)[C@H](O[C@@H]2O[C@H](CO)[C@@H](O)[C@H](O)[C@H]2O)[C@H]1O[C@@H]1O[C@H](CO)[C@@H](O)[C@H](O)[C@H]1O)C3 [rebaudioside D]
- solubility of rebaudioside D at 70° C. and on cooling ([4]; all four concentrations of rebaudioside D below 0.4): dissolved at 70° C., but precipitated from solution when cooled unless stevioside was present

- effect of added steviol glycoside on rebaudioside D solubility [2]: no effect
Compound: C=C1C[C@@]23CC[C@H]4[C@@](C)(CCC[C@@]4(C)C(=O)O[C@@H]4O[C@H](CO)[C@@H](O)[C@H](O)[C@H]4O)[C@@H]2CC[C@]1(O[C@@H]1O[C@H](CO)[C@@H](O)[C@H](O[C@@H]2O[C@H](CO)[C@@H](O)[C@H](O)[C@H]2O)[C@H]1O[C@@H]1O[C@H](CO)[C@@H](O)[C@H](O)[C@H]1O)C3 [rebaudioside A]
- effect of adding the steviol glycoside on rebaudioside D's solubility [1]: does not affect rebaudioside D's solubility
- effect on solubility of rebaudioside D ([7]; 5:1 mixture with rebaudioside D, 1.4 weight percent rebaudioside D, low shear 10 minutes, at each of 21° C., 45° C. and 65° C.): neither rebaudioside A nor the rebaudioside A/stevioside composition including 30 weight percent stevioside enhanced the solubility of rebaudioside D
- effect on solubility of rebaudioside D ([7]; 10:1 mixture with rebaudioside D, 1.43 weight percent rebaudioside D, low shear): did not enhance the solubility of rebaudioside D

- solubility [1]: insoluble
- appearance after adding the steviol glycoside ([1]; added at or over 0.2% to stevioside/rebaudioside D solution): cloudy solution
- share of the amount initially added contained in the aqueous filtrate [8]: 65%
Compound: rebaudioside B
